For one test, the target named is T1, recombinant Pa BfrB (Pseudomonas aeruginosa, UniProt Q9HY79).
T1 construct: made in house; host or cells: E. coli
The experiment in a line: Dissociation constant (Kd), fluorescence quenching titration of apo Pa BfrB. In kind it is binding, P. aeruginosa. The procedure: Measurement of Dissociation Constant (Kd) R ecombinant Pa BfrB was expressed in E. coli and purified as previously reported.19 Apo-BfrB (devoid of heme) was utilized for the measurements to prevent heme-driven fluorescence quenching. A 0.5 mL solution contai ning 0.01 µM apo Pa-BfrB in PBS (pH = 7.4) containing0.5% DMSO was plac ed into a 1 cm quartz cuvette wh ere it was titrated with aliq uots of compound dissolved in a 50% (v/v) PBS/DMSO solution. The fluorescence quenching brought by the addition of each aliquot was monitored with the aid of an Agilent Cary Fluorometer , with excitation at 280 nm, emission at 320- 470 nm, 10 x10 nm slit width, and an average of 5 scans per spectrum. Th e binding assay included at least 8 aliquots spanning from ~ 0.1 […]
A control titration was carried out by titrati ng compound into PBS buffer. The Kd was cal culated by fitting the data to equation S4, w here Fb is the fraction bound and Fmax is the fraction bound at saturating compound concentration.
FFbb = FFmmmmmm ? [ccccmmccccccmmcc ]? (S4) […]

Another test has as its system P. aeruginosa PAO1. The experiment in a line: Half maximal inhibitory concentration (IC50), planktonic growth (CFU/mL). In kind it is cell-based. Conditions: M63 media, 18 h. The procedure: Measurement of Half Maximal Inhibitory Concentration (IC50). IC50 values were determined as reported earlier13 with some modifications. Compound stock solutions in DMSO (100 mM and 10 mM) were prepared from powd er. To prep are the cell susp ensions utilized in the measu rements, starter cultures o f P. aeru ginosa wer e diluted to an optical density at 600 nm (OD600) = 0.005 in fresh LB media (5 mL) and then cultured at 37°C and 220 rpm for 4 h prior to diluting to an OD600 = 0.0001 in M63. A small volume of compound stock solution w as further diluted in DMSO to 30 µL and then diluted in M63 cell suspension to a final volume of 2.0 mL. The resultant solution was placed in a well of a 96-well plate and then serially 2-fold diluted in M63 cell suspension to produce 6 distinct com pound concent rations, each with 1.5% DMSO. Th e plate was co ver ed and incubated for 18 h at 35 °C in a Synergy H1 plate reader (Biotek). The resultant cell cultures were serially diluted in PBS and then plated on PI Agar plates (PIA; BD biosciences) for counting viable cells (CFU/mL). The % growth was calculated from the ratio CFU/mL(t reat ed )/CFU/mL(untreated control). To calculate the IC50 values, the % growth was plotted as a function of compound concentration expressed as log[compound] ( µM), and fitted to equation S1 describing the sigmoid- shaped response pattern, 14 where b is the slope factor, max is the upper asymptote (plateau), and min is the lower asymptote. IC 50 values are the average and standard deviation from three independent experiments , each conducted with thr ee techni cal replicates.

For another test, the system named is A. baumannii ATCC 17978. In words: MIC, broth microdilution in M63 media. In kind it is cell-based. The procedure:
(§1) Measurement of Minimum Inhibitory Concentrations (MIC). The MIC of compounds and select ed antibiotics against three strains of A. baumannii (5075, ATCC 17988, and ATCC 19606) were determined via the broth microdilution method according to Clinical and Laboratory Standard Instit ute (CLSI) guidelines,15 but culturing […]
(§2) To establish a 2-fold dilution series of compound, 985 μ L of diluted cells was mixed with 15 μ L of compound […]
(§3) dissolved in DMSO, such that the resultant solution had the highest concentration of compound or antibiotic tested and 1.5% DMSO. To carry out the serial dilution from the highest compound concentration, a 150 μ L solution of higher concentration compound or antibiotic was mixed with 150 μ L of cell suspension containing 1.5% DMSO in the wells of a 96 well plate.
(§4) Th e 96 well plate was in cubated for 20 hat 35 °C with continuous orbital shaking (205 cpm) in an Epoch2 microplate reader (BioTek), monitoring the growth by […]
(§5) following the OD600. […]
(§6) FFFFFF = MMMMMMAA iiii ccllccbbiiiicccciilliiMMMMMMAA+ MMMMMMBB iiii ccllccbbiiiicccciilliiMMMMMMBB S2 Time Kill Assays. Time-kill assays were performed with A. baumannii 507 5 by the broth macro- dilution method in M63- medium containing 1.5% DMSO. An overnight culture was diluted to approximately 5 x10^5 CFU/mL in fresh M63 media. The test solutions were prepared by adding compound (KM-5- 35, or KM-5- 25) dissolved in DMSO to 5 mL of diluted cell suspension to yield a solution of the desired compound concentration and 1.5% DMSO, or by the addition of antibiotic dissolved in water and a small volume of DMSO to produce the desired

A further test concerns A. baumannii ATCC 19606. In words: MIC, broth microdilution in M63 media. In kind it is cell-based. The procedure: as §1, §2, §3, §4, §5, §6
The test system of a further test is A. baumannii 5075. In words: MIC, broth microdilution in M63 media. In kind it is cell-based. The procedure:
as §1, §2, §3, §4, §5, §6

[1] abbreviates: Acinetobacter baumannii, ATCC17978, 20 h.
[2] abbreviates: Acinetobacter baumannii, ATCC19606, 20 h.
The mark [3] stands for this setting: Acinetobacter baumannii, 5075, 20 h.

Values after ≈ are worked out from the molar mass of the structure shown. Where only a bound is given, the exact number is not on record here.

T1 sequence (Q9HY79 whole entry): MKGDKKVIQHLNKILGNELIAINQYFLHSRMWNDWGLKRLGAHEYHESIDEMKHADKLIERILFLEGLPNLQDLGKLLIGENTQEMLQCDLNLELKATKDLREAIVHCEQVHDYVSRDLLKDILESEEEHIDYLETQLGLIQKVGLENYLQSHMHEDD

As for `O=C1NC(=O)c2c(NCc3cc(Cl)c(O)cc3O)cccc21` [SB-16-160], the Kd on recombinant Pa BfrB amounted to 77 ± 10 µM. Besides, the half-maximal inhibitory concentration (IC50) in the test on P. aeruginosa PAO1 (planktonic cells) turned out to be 45 ± 6 µM. Further, the MIC in the test on A. baumannii ATCC 17978 (20 h), with A. baumannii ATCC 19606 (20 h) and with A. baumannii 5075 (20 h) was greater than 80 µM each time.

On to `O=C1NC(=O)c2c(NCc3cc(Cl)cc(O)c3O)cccc21` [SB-16-168], for which the Kd at recombinant Pa BfrB turned out to be 12 ± 2 µM. The IC50 in the test with P. aeruginosa PAO1 (Pseudomonas aeruginosa, PAO1, planktonic cells) was determined as 15 ± 7 µM. Also, the MIC is greater than 40 µM with A. baumannii ATCC 17978 (setting [1]), greater than 40 µM against A. baumannii ATCC 19606 (setting [2]) and 40 µM (≈ 12.7 µg/mL) in the test with A. baumannii 5075 (setting [3]).

On to `Cc1cc(CNc2cccc3c2C(=O)NC3=O)c(O)cc1Br` [SB-16-183], for which the Kd at recombinant Pa BfrB was 3 ± 0.6 µM. Moreover, in the test on P. aeruginosa PAO1 (planktonic cells), the IC50 turned out to be 13 ± 1 µM. Further, the results for the MIC in the test on A. baumannii ATCC 17978 (20 h), with A. baumannii ATCC 19606 (20 h) and with A. baumannii 5075 (20 h) were 20 µM (≈ 7.22 µg/mL), greater than 20 µM and 20 µM (≈ 7.22 µg/mL), respectively.

For the compound `O=C1NC(=O)c2c(NCc3cc(Br)cc(O)c3O)ccc(Br)c21` [SB-16-250], the Kd on recombinant Pa BfrB came to 15 ± 3 µM. For the same compound, the IC50 in the test on P. aeruginosa PAO1 (planktonic cells) stood at 5 ± 2 µM. Besides, the MIC with A. baumannii ATCC 17978 (20 h), in the test on A. baumannii ATCC 19606 (20 h) and with A. baumannii 5075 (20 h) was greater than 20 µM each time.

For `O=C1NC(=O)c2c(NCc3ccc4c(c3)COC4)cccc21` [SB-17-80], at recombinant Pa BfrB, the Kd was 11 ± 3 µM. Moreover, the “IC50, P. aeruginosa PAO1” value with P. aeruginosa PAO1 (planktonic cells) is reported as “Not active”. In the test with A. baumannii ATCC 17978 (20 h), the “MIC, A. baumannii 17978” value is “Not active”. The “MIC, A. baumannii 19606” value with A. baumannii ATCC 19606 (20 h) was “Not active”. For the same compound, in the test with A. baumannii 5075 (20 h), the “MIC, A. baumannii 5075” value is recorded as “Not active”.

Consider `O=C1NC(=O)c2c(NCc3cccc4c3CCN4)cccc21` [SB-17-140], for which, on recombinant Pa BfrB, the Kd is 37 ± 1 µM. The “IC50, P. aeruginosa PAO1” value with P. aeruginosa PAO1 (planktonic cells) is “Not active”. For the same compound, the MIC with A. baumannii ATCC 17978 (setting [1]), against A. baumannii ATCC 19606 (setting [2]) and with A. baumannii 5075 (setting [3]) was greater than 100 µM in each case.

The record behind these values is publication PMC12261321, “Inhibitors of the Bacterioferritin Ferredoxin Complex Dysregulate Iron Homeostasis and Kill and Biofilm-Embedded Cells” (ACS Infectious Diseases, 2025).
